The target of the experiment is T1, His-TEV-DYRK1A Kinase domain (aa127-485) (Homo sapiens, UniProt Q13627).
T1 construct: His-TEV-DYRK1A Kinase domain (aa127-485); His (N); TEV cleavage site (N)
Nature of the experiment: Kinase ADP assay (ADP Hunter Plus). The format is biochemical.
As a reminder, the IC50 is the concentration at which inhibition is half-maximal. Consider `Cc1nc(N2CCN(C)CC2)c2c(-c3ccnc(N)c3)c[nH]c2n1` [Example 33, 4-[2-methyl-4-(4-methypiperazin-1-yl)-7H-pyrrolo[2,3-d]pyrimidin-5-yl]pyridin-2-amine], for which the IC50 came to 0.165 µM.

With `Cc1nc(NCc2cccnc2)c2c(-c3ccnc(N)c3)c[nH]c2n1` [Example 34, 5-(2-aminopyridin-4-yl)-2-methyl-N-(pyridin-3-ylmethyl)-7H-pyrrolo[2,3-d]pyrimidin-4-amine], the IC50 turned out to be 0.278 µM.

For the compound `Cc1nc(NCc2ccnn2C)c2c(-c3ccnc(N)c3)c[nH]c2n1` [Example 38, 5-(2-aminopyridin-4-yl)-2-methyl-N-[(1-methyl-1H-pyrazol-5-yl)methyl]-7H-pyrrolo[2,3-d]pyrimidin-4-amine], the IC50 stood at 0.149 µM.

As for `Cc1nc(NCc2nccs2)c2c(-c3ccnc(N)c3)c[nH]c2n1` [Example 39, 5-(2-aminopyridin-4-yl)-2-methyl-N-(1,3-thiazol-2-ylmethyl)-7H-pyrrolo[2,3-d]pyrimidin-4-amine], the IC50 worked out at 0.084 µM.

As for `Cc1nc(NCc2cncs2)c2c(-c3ccnc(N)c3)c[nH]c2n1` [Example 41, 5-(2-aminopyridin-4-yl)-2-methyl-N-(1,3-thiazol-5-ylmethyl)-7H-pyrrolo[2,3-d]pyrimidin-4-amine], the IC50 was 0.158 µM.

For the compound `Cc1nc(NCc2ccccc2)c2c(-c3ccncc3)c[nH]c2n1` [Example 42, N-benzyl-2-methyl-5-(pyridin-4-yl)-7H-pyrrolo[2,3-d]pyrimidin-4-amine], the IC50 stood at 0.233 µM.

In the case of `Cc1cc(-c2c[nH]c3nc(C)nc(NCc4ccccc4)c23)ccn1` [Example 43, N-benzyl-2-methyl-5-(2-methylpyridin-4-yl)-7H-pyrrolo[2,3-d]pyrimidin-4-amine], the IC50 is 0.278 µM.

Regarding `Cc1nc(NCc2ccsc2)c2c(-c3ccncc3)c[nH]c2n1` [Example 44, 2-methyl-5-(pyridin-4-yl)-N-(thiophen-3-ylmethyl)-7H-pyrrolo[2,3-d]pyrimidin-4-amine], the IC50 turned out to be 0.249 µM.

On to `Cc1nc(NCc2cc(C)on2)c2c(-c3ccncc3)c[nH]c2n1` [Example 46, 2-methyl-N-[(5-methyl-1,2-oxazol-3-yl)methyl]-5-(pyridin-4-yl)-7H-pyrrolo[2,3-d]pyrimidin-4-amine], for which the IC50 stood at 0.369 µM.

For the compound `Cc1cc(-c2c[nH]c3nc(C)nc(NCc4cc(C)on4)c23)ccn1` [Example 47, 2-methyl-N-[(5-methyl-1,2-oxazol-3-yl)methyl]-5-(2-methylpyridin-4-yl)-7H-pyrrolo[2,3-d]pyrimidin-4-amine], the IC50 was found to be 0.372 µM.

For `Cc1nc(NC(C)c2ccccc2)c2c(-c3ccnc(N)c3)c[nH]c2n1` (stereo not drawn) [Example 49, 5-(2-aminopyridin-4-yl)-2-methyl-N-(1-phenylethyl)-7H-pyrrolo[2,3-d]pyrimidin-4-amine], the IC50 stood at 0.127 µM.

Turning to `Cc1nc(NCc2cccc(F)c2)c2c(-c3ccnc(N)c3)c[nH]c2n1` [Example 50, 5-(2-aminopyridin-4-yl)-N-(3-fluorobenzyl)-2-methyl-7H-pyrrolo[2,3-d]pyrimidin-4-amine], the IC50 is 0.045 µM.

`Cc1nc(N[C@@H](C)c2ccccc2)c2c(-c3ccnc(N)c3)c[nH]c2n1` [Example 67, 5-(2-aminopyridin-4-yl)-2-methyl-N-[(1S)-1-phenylethyl]-7H-pyrrolo[2,3-d]pyrimidin-4-amine]: the IC50 is 0.094 µM.

As for `Cc1nc(N[C@H](C)c2ccccc2)c2c(-c3ccnc(N)c3)c[nH]c2n1` [Example 68, 5-(2-aminopyridin-4-yl)-2-methyl-N-[(1R)-1-phenylethyl]-7H-pyrrolo[2,3-d]pyrimidin-4-amine], the IC50 came to 0.059 µM.

In the case of `Cc1nc(N[C@H]2CCc3ccccc32)c2c(-c3ccnc(N)c3)c[nH]c2n1` [Example 77, 5-(2-aminopyridin-4-yl)-N-[(1S)-2,3-dihydro-1H-inden-1-yl]-2-methyl-7H-pyrrolo[2,3-d]pyrimidin-4-amine], the IC50 is 0.057 µM.

`Cc1nc(N[C@H](C)c2ccccc2F)c2c(-c3ccnc(N)c3)c[nH]c2n1` [Example 86, 5-(2-aminopyridin-4-yl)-N-[(1R)-1-(2-fluorophenyl)ethyl]-2-methyl-7H-pyrrolo[2,3-d]pyrimidin-4-amine]: the IC50 was 0.121 µM.

`Cc1nc(NCc2ccc(-c3ccccn3)s2)c2c(-c3ccnc(N)c3)c[nH]c2n1` [Example 87, 5-(2-aminopyridin-4-yl)-2-methyl-N-{[5-(pyridin-2-yl)thiophen-2-yl]methyl}-7H-pyrrolo[2,3-d]pyrimidin-4-amine]: the IC50 is 1.94 µM.

For `Cc1nc(NCc2cc(-c3ccccc3)no2)c2c(-c3ccnc(N)c3)c[nH]c2n1` [Example 88, 5-(2-aminopyridin-4-yl)-2-methyl N-[(3-phenyl-1,2-oxazol-5-yl)methyl]-7H-pyrrolo[2,3-d]pyrimidin-4-amine], the IC50 was determined as 2.09 µM.

Turning to `Cc1nc(N[C@@H]2CCCc3ccccc32)c2c(-c3ccnc(N)c3)c[nH]c2n1` [Example 91, 5-(2-aminopyridin-4-yl)-2-methyl-N-[(1R)-1,2,3,4-tetrahydronaphthalen-1-yl]-7H-pyrrolo[2,3-d]pyrimidin-4-amine], the IC50 was 0.038 µM.

On to `Cc1nc(NCc2cc(Cl)ccc2Cl)c2c(-c3ccnc(N)c3)c[nH]c2n1` [Example 92, 5-(2-aminopyridin-4-yl)-N-(2,5-dichlorobenzyl)-2-methyl-7H-pyrrolo[2,3-d]pyrimidin-4-amine], for which the IC50 came out at 0.087 µM.

On to `Cc1nc(NC2CCCCC2)c2c(-c3ccnc(N)c3)c[nH]c2n1` [Example 93, 5-(2-aminopyridin-4-yl)-N-cyclohexyl-2-methyl-7H-pyrrolo[2,3-d]pyrimidin-4-amine], for which the IC50 was 0.176 µM.

On to `Cc1nc(N2CCCC(C)C2)c2c(-c3ccnc(N)c3)c[nH]c2n1` (stereo not drawn) [Example 97, 4-[2-methyl-4-{3-methylpiperidin-1-yl)-7H-pyrrolo[2,3-d]pyrimidin-5-yl]pyridin-2-amine], for which the IC50 is 0.063 µM.

With `Cc1nc(NCCC(F)(F)F)c2c(-c3ccnc(N)c3)c[nH]c2n1` [Example 100, 5-(2-aminopyridin-4-yl)-2-methyl-N-(3,3,3-trifluoropropyl)-7H-pyrrolo[2,3-d]pyrimidin-4-amine], the IC50 amounted to 0.161 µM.

With `Cc1nc(N2CCC3(CCCCC3)CC2)c2c(-c3ccnc(N)c3)c[nH]c2n1` [Example 101, 4-[4-(3-azaspiro[5.5]undec-3-yl)-2-methyl-7H-pyrrolo[2,3-d]pyrimidin-5-yl]pyridin-2-amine], the IC50 stood at 0.034 µM.

With `Cc1nc(N2CCC3(CCC(C)CC3)C2)c2c(-c3ccnc(N)c3)c[nH]c2n1` (stereo not drawn) [Example 102, 4-[2-methyl-4-(8-methyl-2-azaspiro[4.5]dec-2-yl)-7H-pyrrolo[2,3-d]pyrimidin-5-yl]pyridin-2-amine], the IC50 was found to be 0.293 µM.

In the case of `Cc1nc(N2CCC2c2ccccc2)c2c(-c3ccnc(N)c3)c[nH]c2n1` (stereo not drawn) [Example 103, 4-[2-methyl-4-(2-phenylazetidin-1-yl)-7H-pyrrolo[2,3-d]pyrimadin-5-yl]pyridin-2-amine], the IC50 stood at 0.694 µM.

Consider `Cc1nc(N2CCC(C(F)(F)F)CC2)c2c(-c3ccnc(N)c3)c[nH]c2n1` [Example 105, 4-{2-methyl-4-[4-(trifluoromethyl)piperidin-1-yl]-7H-pyrrolo[2,3-d]pyrimidin-5-yl}pyridin-2-amine], for which the IC50 worked out at 0.121 µM.

Values taken from patent publication US20180273538A1, “PYRROLO[2,3-d]PYRIMIDINE DERIVATIVES, A PROCESS FOR THEIR PREPARATION AND PHARMACEUTICAL COMPOSITIONS CONTAINING THEM” (LES LABORATOIRES SERVIER, priority 2015, published 2018).
